These compounds were tested on CAL-120 (assay: drug sensitivity score (DSS), CellTiter-Glo (DSS (AUC-based score)); higher = stronger drug effect (viability inhibition or cytotoxicity); extreme values may be limits of the assay). Details: incubation time: 72 h.
Summary of the method: (§1)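 Breast cancer cell lines, seeded as 20 µl suspension, were incubated 72 h with compound in 384-well plates at 5 concentrations in 10-fold steps over a 10,000-fold range set for each compound. Fluorescence from CellTox Green was read at 485/520 nm before CellTiter-Glo luminescence, which was read after 10 min at room temperature. Every plate was normalised to 0.1 % DMSO and a positive kill control, and the drug sensitivity score was taken from the area under the fitted dose-response curve.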

Compound | drug sensitivity score
C[C@H]1C[C@@H]2[C@H]([C@@H](O)C[C@@]3(C)[C@H]2CC[C@]3(O)C(=O)CO)[C@@]2(C)C=CC(=O)C=C12 [Methylprednisolone] | 6.14
Oc1ncc(N(CCCl)CCCl)c(O)n1 [Uracil mustard] | 0
Cc1cnc(NC(=O)Nc2cc(Br)c(C)cc2OC[C@@H]2CNCCO2)cn1 [Rabusertib] | 0
O=C(Cc1ccc(-c2ccc(OCCN3CCOCC3)cc2)cn1)NCc1ccccc1 [KX2-391] | 11

The compounds below were run on CAL-85-1 in the same assay as above. Details: incubation time: 72 h.
Summary of the method: as §1

Compound | drug sensitivity score
C=CC(=O)N1CCC[C@@H](n2nc(-c3ccc(Oc4ccccc4)cc3)c3c(N)ncnc32)C1 [Ibrutinib] | 2.66
CNC(=O)c1cc(Oc2ccc(NC(=O)Nc3cc(C(C)(C)C)nn3-c3ccc4ncccc4c3)c(F)c2)ccn1 [Rebastinib] | 0
O=C(O)C1(C(=O)O)CCC1.[NH2-].[NH2-].[Pt+2] [Carboplatin] | 0
N#Cc1ccc(C(c2ccc(C#N)cc2)n2cncn2)cc1 [Letrozole] | 0
O=C(O)CCCCC(CCSCc1ccccc1)SCc1ccccc1 (stereo not drawn) [CPI-613] | 0
CCCS(=O)(=O)Nc1ccc(F)c(C(=O)c2c[nH]c3ncc(-c4ccc(Cl)cc4)cc23)c1F [Vemurafenib] | 0.555
COc1cc2c(Oc3ccc4[nH]c(C)cc4c3F)ncnc2cc1OCCCN1CCCC1 [Cediranib] | 0
O=C(/C=C/c1cccnc1)NCCCCC1CCN(C(=O)c2ccccc2)CC1 [Daporinad] | 22
Nc1nc2[nH]cc(CCc3ccc(C(=O)N[C@@H](CCC(=O)O)C(=O)O)cc3)c2c(=O)[nH]1 [Pemetrexed] | 13.4
C[C@H]1C[C@@H]2[C@H]([C@@H](O)C[C@@]3(C)[C@H]2CC[C@]3(O)C(=O)CO)[C@@]2(C)C=CC(=O)C=C12 [Methylprednisolone] | 0
Oc1ncc(N(CCCl)CCCl)c(O)n1 [Uracil mustard] | 0
Cc1cnc(NC(=O)Nc2cc(Br)c(C)cc2OC[C@@H]2CNCCO2)cn1 [Rabusertib] | 0.115
O=C(Cc1ccc(-c2ccc(OCCN3CCOCC3)cc2)cn1)NCc1ccccc1 [KX2-391] | 18.5

The compounds below were run on SK-BR-3 in the same assay as above. Details: incubation time: 72 h.
Summary of the method: as §1

Compound | drug sensitivity score
C=CC(=O)N1CCC[C@@H](n2nc(-c3ccc(Oc4ccccc4)cc3)c3c(N)ncnc32)C1 [Ibrutinib] | 17.4
CNC(=O)c1cc(Oc2ccc(NC(=O)Nc3cc(C(C)(C)C)nn3-c3ccc4ncccc4c3)c(F)c2)ccn1 [Rebastinib] | 0
O=C(O)C1(C(=O)O)CCC1.[NH2-].[NH2-].[Pt+2] [Carboplatin] | 0
N#Cc1ccc(C(c2ccc(C#N)cc2)n2cncn2)cc1 [Letrozole] | 0
O=C(O)CCCCC(CCSCc1ccccc1)SCc1ccccc1 (stereo not drawn) [CPI-613] | 0
CCCS(=O)(=O)Nc1ccc(F)c(C(=O)c2c[nH]c3ncc(-c4ccc(Cl)cc4)cc23)c1F [Vemurafenib] | 0
COc1cc2c(Oc3ccc4[nH]c(C)cc4c3F)ncnc2cc1OCCCN1CCCC1 [Cediranib] | 0
O=C(/C=C/c1cccnc1)NCCCCC1CCN(C(=O)c2ccccc2)CC1 [Daporinad] | 0
Nc1nc2[nH]cc(CCc3ccc(C(=O)N[C@@H](CCC(=O)O)C(=O)O)cc3)c2c(=O)[nH]1 [Pemetrexed] | 11
C[C@H]1C[C@@H]2[C@H]([C@@H](O)C[C@@]3(C)[C@H]2CC[C@]3(O)C(=O)CO)[C@@]2(C)C=CC(=O)C=C12 [Methylprednisolone] | 0
Oc1ncc(N(CCCl)CCCl)c(O)n1 [Uracil mustard] | 0
Cc1cnc(NC(=O)Nc2cc(Br)c(C)cc2OC[C@@H]2CNCCO2)cn1 [Rabusertib] | 1.38
O=C(Cc1ccc(-c2ccc(OCCN3CCOCC3)cc2)cn1)NCc1ccccc1 [KX2-391] | 27.5

The compounds below were run on DU-4475 (assay: drug sensitivity score (DSS), CellTox Green (DSS (AUC-based score)); higher = stronger drug effect (viability inhibition or cytotoxicity); extreme values may be limits of the assay). Details: incubation time: 72 h.
Summary of the method: as §1

Compound | drug sensitivity score
C=CC(=O)N1CCC[C@@H](n2nc(-c3ccc(Oc4ccccc4)cc3)c3c(N)ncnc32)C1 [Ibrutinib] | 0
CNC(=O)c1cc(Oc2ccc(NC(=O)Nc3cc(C(C)(C)C)nn3-c3ccc4ncccc4c3)c(F)c2)ccn1 [Rebastinib] | 0
O=C(O)C1(C(=O)O)CCC1.[NH2-].[NH2-].[Pt+2] [Carboplatin] | 0
N#Cc1ccc(C(c2ccc(C#N)cc2)n2cncn2)cc1 [Letrozole] | 0
O=C(O)CCCCC(CCSCc1ccccc1)SCc1ccccc1 (stereo not drawn) [CPI-613] | 0
CCCS(=O)(=O)Nc1ccc(F)c(C(=O)c2c[nH]c3ncc(-c4ccc(Cl)cc4)cc23)c1F [Vemurafenib] | 1.82
COc1cc2c(Oc3ccc4[nH]c(C)cc4c3F)ncnc2cc1OCCCN1CCCC1 [Cediranib] | 0
O=C(/C=C/c1cccnc1)NCCCCC1CCN(C(=O)c2ccccc2)CC1 [Daporinad] | 0
Nc1nc2[nH]cc(CCc3ccc(C(=O)N[C@@H](CCC(=O)O)C(=O)O)cc3)c2c(=O)[nH]1 [Pemetrexed] | 0
C[C@H]1C[C@@H]2[C@H]([C@@H](O)C[C@@]3(C)[C@H]2CC[C@]3(O)C(=O)CO)[C@@]2(C)C=CC(=O)C=C12 [Methylprednisolone] | 0
Oc1ncc(N(CCCl)CCCl)c(O)n1 [Uracil mustard] | 0
Cc1cnc(NC(=O)Nc2cc(Br)c(C)cc2OC[C@@H]2CNCCO2)cn1 [Rabusertib] | 0
O=C(Cc1ccc(-c2ccc(OCCN3CCOCC3)cc2)cn1)NCc1ccccc1 [KX2-391] | 0

Each compound was assayed on MDA-MB-231 in the same assay as above. Details: incubation time: 72 h.
Summary of the method: as §1

Compound | drug sensitivity score
C=CC(=O)N1CCC[C@@H](n2nc(-c3ccc(Oc4ccccc4)cc3)c3c(N)ncnc32)C1 [Ibrutinib] | 0
CNC(=O)c1cc(Oc2ccc(NC(=O)Nc3cc(C(C)(C)C)nn3-c3ccc4ncccc4c3)c(F)c2)ccn1 [Rebastinib] | 0
O=C(O)C1(C(=O)O)CCC1.[NH2-].[NH2-].[Pt+2] [Carboplatin] | 0
N#Cc1ccc(C(c2ccc(C#N)cc2)n2cncn2)cc1 [Letrozole] | 0
O=C(O)CCCCC(CCSCc1ccccc1)SCc1ccccc1 (stereo not drawn) [CPI-613] | 0
CCCS(=O)(=O)Nc1ccc(F)c(C(=O)c2c[nH]c3ncc(-c4ccc(Cl)cc4)cc23)c1F [Vemurafenib] | 0.329
COc1cc2c(Oc3ccc4[nH]c(C)cc4c3F)ncnc2cc1OCCCN1CCCC1 [Cediranib] | 0
O=C(/C=C/c1cccnc1)NCCCCC1CCN(C(=O)c2ccccc2)CC1 [Daporinad] | 0
Nc1nc2[nH]cc(CCc3ccc(C(=O)N[C@@H](CCC(=O)O)C(=O)O)cc3)c2c(=O)[nH]1 [Pemetrexed] | 2.43
C[C@H]1C[C@@H]2[C@H]([C@@H](O)C[C@@]3(C)[C@H]2CC[C@]3(O)C(=O)CO)[C@@]2(C)C=CC(=O)C=C12 [Methylprednisolone] | 0
Oc1ncc(N(CCCl)CCCl)c(O)n1 [Uracil mustard] | 0
Cc1cnc(NC(=O)Nc2cc(Br)c(C)cc2OC[C@@H]2CNCCO2)cn1 [Rabusertib] | 0
O=C(Cc1ccc(-c2ccc(OCCN3CCOCC3)cc2)cn1)NCc1ccccc1 [KX2-391] | 0

These compounds were tested on CAL-148 in the same assay as above. Details: incubation time: 72 h.
Summary of the method: as §1

Compound | drug sensitivity score
C=CC(=O)N1CCC[C@@H](n2nc(-c3ccc(Oc4ccccc4)cc3)c3c(N)ncnc32)C1 [Ibrutinib] | 0
CNC(=O)c1cc(Oc2ccc(NC(=O)Nc3cc(C(C)(C)C)nn3-c3ccc4ncccc4c3)c(F)c2)ccn1 [Rebastinib] | 0
O=C(O)C1(C(=O)O)CCC1.[NH2-].[NH2-].[Pt+2] [Carboplatin] | 0
N#Cc1ccc(C(c2ccc(C#N)cc2)n2cncn2)cc1 [Letrozole] | 0
O=C(O)CCCCC(CCSCc1ccccc1)SCc1ccccc1 (stereo not drawn) [CPI-613] | 0
CCCS(=O)(=O)Nc1ccc(F)c(C(=O)c2c[nH]c3ncc(-c4ccc(Cl)cc4)cc23)c1F [Vemurafenib] | 0
COc1cc2c(Oc3ccc4[nH]c(C)cc4c3F)ncnc2cc1OCCCN1CCCC1 [Cediranib] | 0
O=C(/C=C/c1cccnc1)NCCCCC1CCN(C(=O)c2ccccc2)CC1 [Daporinad] | 0
Nc1nc2[nH]cc(CCc3ccc(C(=O)N[C@@H](CCC(=O)O)C(=O)O)cc3)c2c(=O)[nH]1 [Pemetrexed] | 0
C[C@H]1C[C@@H]2[C@H]([C@@H](O)C[C@@]3(C)[C@H]2CC[C@]3(O)C(=O)CO)[C@@]2(C)C=CC(=O)C=C12 [Methylprednisolone] | 0
Oc1ncc(N(CCCl)CCCl)c(O)n1 [Uracil mustard] | 0
Cc1cnc(NC(=O)Nc2cc(Br)c(C)cc2OC[C@@H]2CNCCO2)cn1 [Rabusertib] | 0.673
O=C(Cc1ccc(-c2ccc(OCCN3CCOCC3)cc2)cn1)NCc1ccccc1 [KX2-391] | 0

Each compound was assayed on CAL-51 in the same assay as above. Details: incubation time: 72 h.
Summary of the method: as §1

Compound | drug sensitivity score
C=CC(=O)N1CCC[C@@H](n2nc(-c3ccc(Oc4ccccc4)cc3)c3c(N)ncnc32)C1 [Ibrutinib] | 0.377
CNC(=O)c1cc(Oc2ccc(NC(=O)Nc3cc(C(C)(C)C)nn3-c3ccc4ncccc4c3)c(F)c2)ccn1 [Rebastinib] | 0
O=C(O)C1(C(=O)O)CCC1.[NH2-].[NH2-].[Pt+2] [Carboplatin] | 0
N#Cc1ccc(C(c2ccc(C#N)cc2)n2cncn2)cc1 [Letrozole] | 0
O=C(O)CCCCC(CCSCc1ccccc1)SCc1ccccc1 (stereo not drawn) [CPI-613] | 0
CCCS(=O)(=O)Nc1ccc(F)c(C(=O)c2c[nH]c3ncc(-c4ccc(Cl)cc4)cc23)c1F [Vemurafenib] | 8.51
COc1cc2c(Oc3ccc4[nH]c(C)cc4c3F)ncnc2cc1OCCCN1CCCC1 [Cediranib] | 0
O=C(/C=C/c1cccnc1)NCCCCC1CCN(C(=O)c2ccccc2)CC1 [Daporinad] | 0
Nc1nc2[nH]cc(CCc3ccc(C(=O)N[C@@H](CCC(=O)O)C(=O)O)cc3)c2c(=O)[nH]1 [Pemetrexed] | 0
C[C@H]1C[C@@H]2[C@H]([C@@H](O)C[C@@]3(C)[C@H]2CC[C@]3(O)C(=O)CO)[C@@]2(C)C=CC(=O)C=C12 [Methylprednisolone] | 0
Oc1ncc(N(CCCl)CCCl)c(O)n1 [Uracil mustard] | 0
Cc1cnc(NC(=O)Nc2cc(Br)c(C)cc2OC[C@@H]2CNCCO2)cn1 [Rabusertib] | 0
O=C(Cc1ccc(-c2ccc(OCCN3CCOCC3)cc2)cn1)NCc1ccccc1 [KX2-391] | 20.3

These compounds were tested on Hs578T in the same assay as above. Details: incubation time: 72 h.
Summary of the method: as §1

Compound | drug sensitivity score
C=CC(=O)N1CCC[C@@H](n2nc(-c3ccc(Oc4ccccc4)cc3)c3c(N)ncnc32)C1 [Ibrutinib] | 0
CNC(=O)c1cc(Oc2ccc(NC(=O)Nc3cc(C(C)(C)C)nn3-c3ccc4ncccc4c3)c(F)c2)ccn1 [Rebastinib] | 0
O=C(O)C1(C(=O)O)CCC1.[NH2-].[NH2-].[Pt+2] [Carboplatin] | 0
N#Cc1ccc(C(c2ccc(C#N)cc2)n2cncn2)cc1 [Letrozole] | 0.858
O=C(O)CCCCC(CCSCc1ccccc1)SCc1ccccc1 (stereo not drawn) [CPI-613] | 0
CCCS(=O)(=O)Nc1ccc(F)c(C(=O)c2c[nH]c3ncc(-c4ccc(Cl)cc4)cc23)c1F [Vemurafenib] | 0

Reference: the supplement of paper PMC4862054
